Where a name gives a salt, the structure may show the parent alone.
Key:
[1] = test system: human monocyte stimulated cytokine production (TNF-α); assay: Monocyte assay (LPS-stimulated TNF-α production); type: cell-based; conditions: for inhibition at 0.3 µM: read-out: inhibition at 300 nM in the monocyte assay; for IC50: 24 h, 200 ng/mL LPS, TNF-α by ELISA
Procedure, shortened: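 Human CD14+ monocytes were purified from blood and plated at 1×10^6 cells/mL in RPMI 1640 with 10% FBS. Compound was added 30 min before stimulation with 200 ng/mL LPS (0.1% DMSO final), followed by 24 hrs at 37 C. Supernatant TNF-α was measured by ELISA, and viability by trypan blue exclusion.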

[2] = molecular target: T1, Recombinant human IKKβ (residues 1-737) (Homo sapiens, UniProt O14920); assay: IKK2 assay (TR-FRET); type: biochemical; conditions: ATP 1 μM final, read-out: pIC50 against IKK2 (converted)
T1 construct: Recombinant human IKKβ (residues 1-737); GST (C); made in house
T1 sequence (O14920 1-737): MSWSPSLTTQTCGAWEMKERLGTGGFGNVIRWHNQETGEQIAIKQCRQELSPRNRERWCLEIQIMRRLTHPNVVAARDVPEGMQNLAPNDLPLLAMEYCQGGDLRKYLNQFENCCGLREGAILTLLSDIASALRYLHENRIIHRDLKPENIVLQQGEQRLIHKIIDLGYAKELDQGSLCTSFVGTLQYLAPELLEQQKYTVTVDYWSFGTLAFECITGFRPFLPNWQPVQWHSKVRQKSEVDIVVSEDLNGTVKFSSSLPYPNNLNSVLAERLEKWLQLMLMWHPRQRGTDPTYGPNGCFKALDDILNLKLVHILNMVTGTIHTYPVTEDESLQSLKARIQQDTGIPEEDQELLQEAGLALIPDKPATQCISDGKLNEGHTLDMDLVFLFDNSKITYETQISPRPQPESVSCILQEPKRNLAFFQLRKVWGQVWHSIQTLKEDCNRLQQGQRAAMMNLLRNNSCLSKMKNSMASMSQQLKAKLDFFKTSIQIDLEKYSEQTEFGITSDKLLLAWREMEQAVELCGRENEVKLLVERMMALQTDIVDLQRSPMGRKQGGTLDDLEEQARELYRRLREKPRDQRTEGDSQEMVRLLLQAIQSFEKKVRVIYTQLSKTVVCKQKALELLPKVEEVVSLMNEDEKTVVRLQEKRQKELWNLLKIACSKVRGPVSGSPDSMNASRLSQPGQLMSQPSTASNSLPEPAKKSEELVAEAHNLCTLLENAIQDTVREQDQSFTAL
Procedure, shortened: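 Baculovirus-expressed C-terminal GST-tagged IKKβ (0.5-5 nM final) in HEPES pH 7.4, MgCl2, CHAPS, DTT, BSA with 1.7% DMSO; 25 nM GST-IB substrate and 1 μM ATP, 15 min at room temperature. EDTA stop; phospho-Ser32/36 detected by Eu-antibody/APC-anti-GST TR-FRET, 665/620 nm ratio.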

Row | IC50 [2] [µM] | IC50 [1] [µM] | SMILES | inhibition at 0.3 µM [1] [%]
1 | ≤ 10 |  | CCS(=O)(=O)N1CCC(c2c[nH]c3c(C(N)=O)cc(-c4csc(CN5CCC[C@@H]5C(N)=O)c4)cc23)CC1 [Example 48, 5-(5-{[(2R)-2-(aminocarbonyl)-1-pyrrolidinyl]methyl}-3-thienyl)-3-[1-(ethylsulfonyl)-4-piperidinyl]-1H-indole-7-carboxamide] | 0 to 60
2 | ≤ 10 |  | CCS(=O)(=O)N1CCC(c2c[nH]c3c(C(N)=O)cc(-c4csc(CN5CC[C@H](N(C)C)C5)c4)cc23)CC1 [Example 49, 5-(5-{[(3S)-3-(dimethylamino)-1-pyrrolidinyl]methyl}-3-thienyl)-3-[1-(ethylsulfonyl)-4-piperidinyl]-1H-indole-7-carboxamide] | 0 to 60
3 | ≤ 10 | > 1 | CCS(=O)(=O)N1CCC(c2c[nH]c3c(C(N)=O)cc(-c4cnn(CCN5CCC(N(C)C)CC5)c4)cc23)CC1 [Example 50, 5-(1-{2-[4-(dimethylamino)-1-piperidinyl]ethyl}-1H-pyrazol-4-yl)-3-[1-(ethylsulfonyl)-4-piperidinyl]-1H-indole-7-carboxamide trifluoroacetate] | 
4 | ≤ 10 |  | CCS(=O)(=O)N1CCC(c2c[nH]c3c(C(N)=O)cc(-c4cc(CN(C)C)c5c(c4)OCC5)cc23)CC1 [Example 58, 5-{4-[(dimethylamino)methyl]-2,3-dihydro-1-benzofuran-6-yl}-3-[1-(ethylsulfonyl)-4-piperidinyl]-1H-indole-7-carboxamide] | 0 to 60
5 | ≤ 10 |  | CCS(=O)(=O)N1CCC(c2c[nH]c3c(C(N)=O)cc(-c4cc(CN5CCOCC5)c5c(c4)OCC5)cc23)CC1 [Example 60, 3-[1-(ethylsulfonyl)-4-piperidinyl]-5-[4-(4-morpholinylmethyl)-2,3-dihydro-1-benzofuran-6-yl]-1H-indole-7-carboxamide] | 0 to 60
6 | ≤ 10 | ≤ 1.5 | CCS(=O)(=O)N1CCC(c2c[nH]c3c(C(N)=O)cc(-c4ccc(CNC(C)COC)s4)cc23)CC1 (centres unmarked) [Example 61, 3-[1-(ethylsulfonyl)-4-piperidinyl]-5-[5-({[1-methyl-2-(methyloxy)ethyl]amino}methyl)-2-thienyl]-1H-indole-7-carboxamide] | 
7 | ≤ 10 | ≤ 1.5 | CCS(=O)(=O)N1CCC(c2c[nH]c3c(C(N)=O)cc(-c4cncc(CNCCC#N)c4)cc23)CC1 [Example 62, 5-(5-{[(2-cyanoethyl)amino]methyl}-3-pyridinyl)-3-[1-(ethylsulfonyl)-4-piperidinyl]-1H-indole-7-carboxamide] | 
8 | ≤ 10 |  | CCS(=O)(=O)N1CCC(c2c[nH]c3c(C(N)=O)cc(-c4cncc(CNCC(F)(F)F)c4)cc23)CC1 [Example 63, 3-[1-(ethylsulfonyl)-4-piperidinyl]-5-(5-{[(2,2,2-trifluoroethyl)amino]methyl}-3-pyridinyl)-1H-indole-7-carboxamide] | 0 to 60
9 | ≤ 10 | ≤ 1.5 | CCS(=O)(=O)N1CCC(c2c[nH]c3c(C(N)=O)cc(-c4cccc(CN(C)C)c4)cc23)CC1 [Example 64, 5-{3-[(dimethylamino)methyl]phenyl}-3-[1-(ethylsulfonyl)-4-piperidinyl]-1H-indole-7-carboxamide] | 
10 | ≤ 10 | ≤ 1.5 | CCN(C)Cc1cc(-c2cc(C(N)=O)c3[nH]cc(C4CCN(S(=O)(=O)CC)CC4)c3c2)cs1 [Example 65, 5-(5-{[ethyl(methyl)amino]methyl}-3-thienyl)-3-[1-(ethylsulfonyl)-4-piperidinyl]-1H-indole-7-carboxamide trifluoroacetate] | 
11 | ≤ 10 | ≤ 1.5 | CCN(CC)CCN(C)Cc1cc(-c2cc(C(N)=O)c3[nH]cc(C4CCN(S(=O)(=O)CC)CC4)c3c2)cs1 [Example 66, 5-(5-{[[2-(diethylamino)ethyl](methyl)amino]methyl}-3-thienyl)-3-[1-(ethylsulfonyl)-4-piperidinyl]-1H-indole-7-carboxamide trifluoroacetate] | 
12 | ≤ 10 | ≤ 1.5 | CCCCN(C)Cc1cc(-c2cc(C(N)=O)c3[nH]cc(C4CCN(S(=O)(=O)CC)CC4)c3c2)cs1 [Example 67, 5-(5-{[butyl(methyl)amino]methyl}-3-thienyl)-3-[1-(ethylsulfonyl)-4-piperidinyl]-1H-indole-7-carboxamide trifluoroacetate] | 
13 | ≤ 10 | ≤ 1.5 | CCCN(C)Cc1cc(-c2cc(C(N)=O)c3[nH]cc(C4CCN(S(=O)(=O)CC)CC4)c3c2)cs1 [Example 68, 3-[1-(ethylsulfonyl)-4-piperidinyl]-5-(5-{[methyl(propyl)amino]methyl}-3-thienyl)-1H-indole-7-carboxamide trifluoroacetate] | 
14 | ≤ 10 | ≤ 1.5 | CCS(=O)(=O)N1CCC(c2c[nH]c3c(C(N)=O)cc(-c4csc(CN(C)CCN(C)C)c4)cc23)CC1 [Example 69, 5-(5-{[[2-(dimethylamino)ethyl](methyl)amino]methyl}-3-thienyl)-3-[1-(ethylsulfonyl)-4-piperidinyl]-1H-indole-7-carboxamide trifluoroacetate] | 
15 | ≤ 10 | > 1 | CCS(=O)(=O)N1CCC(c2c[nH]c3c(C(N)=O)cc(-c4csc(CN(C)CCCN(C)C)c4)cc23)CC1 [Example 70, 5-(5-{[[3-(dimethylamino)propyl](methyl)amino]methyl}-3-thienyl)-3-[1-(ethylsulfonyl)-4-piperidinyl]-1H-indole-7-carboxamide trifluoroacetate] | 
16 | ≤ 10 | ≤ 1.5 | CCS(=O)(=O)N1CCC(c2c[nH]c3c(C(N)=O)cc(-c4csc(CN(C)C5CCCC5)c4)cc23)CC1 [Example 71, 5-(5-{[cyclopentyl(methyl)amino]methyl}-3-thienyl)-3-[1-(ethylsulfonyl)-4-piperidinyl]-1H-indole-7-carboxamide trifluoroacetate] | 
17 | ≤ 10 | ≤ 1.5 | CCCCCN(C)Cc1cc(-c2cc(C(N)=O)c3[nH]cc(C4CCN(S(=O)(=O)CC)CC4)c3c2)cs1 [Example 72, 3-[1-(ethylsulfonyl)-4-piperidinyl]-5-(5-{[methyl(pentyl)amino]methyl}-3-thienyl)-1H-indole-7-carboxamide trifluoroacetate] | 
18 | ≤ 10 | ≤ 1.5 | CCS(=O)(=O)N1CCC(c2c[nH]c3c(C(N)=O)cc(-c4csc(CN(C)CC(C)C)c4)cc23)CC1 [Example 73, 3-[1-(ethylsulfonyl)-4-piperidinyl]-5-(5-{[methyl(2-methylpropyl)amino]methyl}-3-thienyl)-1H-indole-7-carboxamide trifluoroacetate] | 
19 | ≤ 10 |  | CCS(=O)(=O)N1CCC(c2c[nH]c3c(C(N)=O)cc(-c4csc(CN(C)Cc5ccccc5)c4)cc23)CC1 [Example 74, 3-[1-(ethylsulfonyl)-4-piperidinyl]-5-(5-{[methyl(phenylmethyl)amino]methyl}-3-thienyl)-1H-indole-7-carboxamide trifluoroacetate] | 0 to 60
20 | ≤ 10 | ≤ 1.5 | CCS(=O)(=O)N1CCC(c2c[nH]c3c(C(N)=O)cc(-c4csc(CN(C)CCO)c4)cc23)CC1 [Example 75, 3-[1-(ethylsulfonyl)-4-piperidinyl]-5-(5-{[(2-hydroxyethyl)(methyl)amino]methyl}-3-thienyl)-1H-indole-7-carboxamide trifluoroacetate] | 
21 | ≤ 10 | ≤ 1.5 | CCS(=O)(=O)N1CCC(c2c[nH]c3c(C(N)=O)cc(-c4csc(CN(C)CCc5ccccn5)c4)cc23)CC1 [Example 76, 3-[1-(ethylsulfonyl)-4-piperidinyl]-5-[5-({methyl[2-(2-pyridinyl)ethyl]amino}methyl)-3-thienyl]-1H-indole-7-carboxamide trifluoroacetate] | 
22 | ≤ 10 | ≤ 1.5 | CCS(=O)(=O)N1CCC(c2c[nH]c3c(C(N)=O)cc(-c4csc(CN(C)Cc5ccco5)c4)cc23)CC1 [Example 77, 3-[1-(ethylsulfonyl)-4-piperidinyl]-5-(5-{[(2-furanylmethyl)(methyl)amino]methyl}-3-thienyl)-1H-indole-7-carboxamide trifluoroacetate] | 
